Key:
VC1 and ACGC domains = molecular target: T1, VC1 and ACGC domains (UniProt P26769+P30803, D1018C/K938E); test: guanylyl cyclase activity in the presence of Mn2+, BODIPY FL-GTPγS as substrate; assay type: biochemical; conditions: 5 mM Mg2+ and 5 mM Mn2+ vs 10 mM Mg2+
T1 construct: The soluble intracellular (C1 and C2) domains of adenylyl cyclase were utilized; The mutations to enhance guanylyl cyclase activity are in the C2 domain
Experimental: This Example describes the effect of Mn^2+ on guanylyl cyclase activity. All assays were performed at 22° C. in the presence of 2 μM BODIPY FL-GTPγS and the presence of 5 mM Mg ^2+ and 5 mM Mn^2+ or 10 mM Mg^2+ and the absence or presence of 100 μM forskolin (Fsk). Assays were performed in a 96 well, low fluorescence microtitre plate using a fluorescence plate reader. Excitation and emission wavelengths were 485 and 525 nm respectively.
The linear portion of the progress curves from data in FIG. 2B was fitted by linear regression with respect to time. The individual rates are plotted against the concentration of the VC1 domain.

[1] = test system: wild type adenylyl cyclases (ACs); conditions: addition of Mn2+ compared with Mg2+; cited from earlier work
[2] = molecular target: T2, membrane-bound form of AC1 (adenylyl cyclase type I) expressed in sf9 cells (Homo sapiens, UniProt Q08828); test: membrane cyclase fluorescence assay; assay type: biochemical
T2 construct: made in house; host or cells: sf9 cells
Experimental: The activity of a membrane-bound form of AC1 (adenylyl cyclase type I) expressed in sf9 cells was measured using the fluorescence assay described above.

T2 sequence (Q08828 whole entry): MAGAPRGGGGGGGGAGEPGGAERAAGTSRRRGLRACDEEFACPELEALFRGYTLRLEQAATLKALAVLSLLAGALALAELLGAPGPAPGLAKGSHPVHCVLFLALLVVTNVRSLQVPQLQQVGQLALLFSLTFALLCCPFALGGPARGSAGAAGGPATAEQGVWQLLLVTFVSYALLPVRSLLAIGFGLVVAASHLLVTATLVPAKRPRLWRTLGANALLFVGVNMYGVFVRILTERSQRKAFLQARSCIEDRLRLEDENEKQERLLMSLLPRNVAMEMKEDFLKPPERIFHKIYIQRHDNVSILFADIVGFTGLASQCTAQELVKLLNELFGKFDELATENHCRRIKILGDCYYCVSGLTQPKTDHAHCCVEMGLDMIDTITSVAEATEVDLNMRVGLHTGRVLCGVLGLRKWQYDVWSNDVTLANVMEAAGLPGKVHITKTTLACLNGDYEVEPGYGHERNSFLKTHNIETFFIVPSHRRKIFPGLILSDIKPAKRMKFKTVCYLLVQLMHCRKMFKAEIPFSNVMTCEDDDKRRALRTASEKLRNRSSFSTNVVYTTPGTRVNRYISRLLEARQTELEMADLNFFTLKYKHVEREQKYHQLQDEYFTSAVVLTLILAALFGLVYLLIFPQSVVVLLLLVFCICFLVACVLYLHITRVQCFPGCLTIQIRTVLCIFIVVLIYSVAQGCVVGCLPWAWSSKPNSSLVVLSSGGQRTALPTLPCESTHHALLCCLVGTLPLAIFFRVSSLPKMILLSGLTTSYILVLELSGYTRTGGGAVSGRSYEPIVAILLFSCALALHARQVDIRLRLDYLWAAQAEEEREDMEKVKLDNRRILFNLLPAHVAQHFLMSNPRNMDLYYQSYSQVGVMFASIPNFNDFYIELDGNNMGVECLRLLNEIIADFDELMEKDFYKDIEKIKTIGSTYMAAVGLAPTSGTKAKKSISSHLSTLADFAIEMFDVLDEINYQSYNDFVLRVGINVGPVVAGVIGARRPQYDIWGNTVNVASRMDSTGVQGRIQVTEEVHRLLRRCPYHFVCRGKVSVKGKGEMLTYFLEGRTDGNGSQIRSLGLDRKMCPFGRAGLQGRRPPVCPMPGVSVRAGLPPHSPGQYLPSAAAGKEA

Compound	enhancement of the forskolin-activated rate of accumulation of BODIPY-thio-pyrophosphate (VC1 and ACGC domains; 100 μM forskolin)	effect on basal activity (VC1 and ACGC domains; absence of forskolin)	alteration of the Km for GTP [1]	effective concentration to produce the half maximal activation (EC50) [2]
[Mn+2] [Mn^2+]	over thirty-fold	enhanced basal activity significantly	at least 1000 fold	–
C=C[C@@]1(C)CC(=O)[C@]2(O)[C@@]3(C)[C@@H](O)CCC(C)(C)[C@@H]3[C@H](O)[C@H](OC(C)=O)[C@@]2(C)O1 [forskolin]	–	–	–	consistent with previously published values
